The values below come from patent US20070049593A1 (priority 2004, published 2007).

By IC50 is commonly meant the concentration at which inhibition is half-maximal. A high value points to a need for much substance.

Where a name gives a salt, the structure may show the parent alone.

For this assay, the target named is T1, HCV polymerase (Hepatitis C virus genotype 1b, UniProt P26663).
T1 construct: a region encoding NS5B (J Virol 1991 March, 65(3), 1105-13, 544 amino acids after deletion of 47 amino acids on the C-terminal); 6xHis (C); made in house; host or cells: Escherichia coli
T1 sequence (P26663 2420-2963): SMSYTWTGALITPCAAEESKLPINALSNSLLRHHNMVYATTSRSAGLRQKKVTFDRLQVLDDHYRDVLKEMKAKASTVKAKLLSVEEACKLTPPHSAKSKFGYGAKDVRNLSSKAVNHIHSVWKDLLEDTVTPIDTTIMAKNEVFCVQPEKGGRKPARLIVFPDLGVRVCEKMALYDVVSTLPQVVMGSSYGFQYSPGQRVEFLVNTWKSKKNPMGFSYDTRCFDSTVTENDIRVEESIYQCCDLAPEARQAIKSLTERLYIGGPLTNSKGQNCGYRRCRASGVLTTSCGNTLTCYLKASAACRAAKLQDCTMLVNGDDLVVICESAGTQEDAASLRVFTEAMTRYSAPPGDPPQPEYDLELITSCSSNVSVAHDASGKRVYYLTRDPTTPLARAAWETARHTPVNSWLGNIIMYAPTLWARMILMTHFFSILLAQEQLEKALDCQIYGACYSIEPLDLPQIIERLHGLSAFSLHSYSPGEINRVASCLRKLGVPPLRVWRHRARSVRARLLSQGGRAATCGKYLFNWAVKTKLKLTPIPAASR
The experiment in a line: biochemical. Set-up: species or system HCV BK strain. An outline of the steps: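 His-tagged NS5B (BK strain, 47-aa C-terminal deletion, E. coli-expressed) at 0.5 μg/ml copied 5 μg/ml run-off RNA bearing the HCV 3′ UTR with 2 μM UTP plus [3H]UTP, 50 μM ATP/GTP, in pH 7.5 Tris with 5 mM MgCl2, 25 °C, 90 min. TCA-precipitated RNA was counted and IC50 calculated.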
As for `O=C(O)c1ccc2c(C3CCCCC3)c3n(c2c1)CCN(CC[C@@H]1CCCN(C2CCCC2)C1)c1cc(Cl)ccc1-3` [Example 1-404, 3-chloro-13-cyclohexyl-5-[2-((S)-1-cyclopentylpiperidin-3-yl)ethyl]-6,7-dihydro-5H-benzo[5,6][1,4]diazepino[7,1-a]indole-10-carboxylic acid dihydrochloride], the IC50 is < 100 nM.

In the case of `CC(C)OCC1CCCN(CCN2CCn3c(c(C4CCCCC4)c4ccc(C(=O)O)cc43)-c3ccccc32)C1` (stereo not shown) [Example 1-405, 13-cyclohexyl-5-[2-(3-isopropoxymethylpiperidin-1-yl)ethyl]-6,7-dihydro-5H-benzo[5,6][1,4]diazepino[7,1-a]indole-10-carboxylic acid dihydrochloride], the IC50 was < 100 nM.

For the compound `CC(C)OCC1CCCN(CCN2CCn3c(c(C4CCCCC4)c4ccc(C(=O)O)cc43)-c3ccc(Cl)cc32)C1` (stereo not shown) [Example 1-406, 3-chloro-13-cyclohexyl-5-[2-(3-isopropoxymethylpiperidin-1-yl)ethyl]-6,7-dihydro-5H-benzo[5,6][1,4]diazepino[7,1-a]indole-10-carboxylic acid dihydrochloride], the IC50 was < 100 nM.

Take `Cc1ccc2c(c1)N(CCN1CCCC(COC(C)C)C1)CCn1c-2c(C2CCCCC2)c2ccc(C(=O)O)cc21` (stereo not shown) [Example 1-407, 13-cyclohexyl-5-[2-(3-isopropoxymethylpiperidin-1-yl)ethyl]-3-methyl-6,7-dihydro-5H-benzo[5,6][1,4]diazepino[7,1-a]indole-10-carboxylic acid dihydrochloride]: the IC50 is < 100 nM.

Turning to `O=C(O)c1ccc2c(C3CCCCC3)c3n(c2c1)CCN(CC[C@H]1CCCN(C2CCCC2)C1)c1cc(Cl)ccc1-3` [Example 1-408, 3-chloro-13-cyclohexyl-5-[2-((R)-1-cyclopentylpiperidin-3-yl)ethyl]-6,7-dihydro-5H-benzo[5,6][1,4]diazepino[7,1-a]indole-10-carboxylic acid dihydrochloride], the IC50 was < 100 nM.

For `COCC[C@H]1CCCN(CCN2CCn3c(c(C4CCCCC4)c4ccc(C(=O)O)cc43)-c3ccc(C)cc32)C1` [Example 1-409, 13-cyclohexyl-5-{2-[(R)-3-(2-methoxyethyl)piperidin-1-yl]ethyl}-3-methyl-6,7-dihydro-5H-benzo[5,6][1,4]diazepino[7,1-a]indole-10-carboxylic acid dihydrochloride], the IC50 was < 100 nM.

As to `CCCN1CCCC(CCN2CCn3c(c(C4CCCCC4)c4ccc(C(=O)O)cc43)-c3ccc(C)cc32)C1` (stereo not shown) [Example 1-410, 13-cyclohexyl-3-methyl-5-[2-(1-propylpiperidin-3-yl)ethyl]-6,7-dihydro-5H-benzo[5,6][1,4]diazepino[7,1-a]indole-10-carboxylic acid dihydrochloride], the IC50 was < 100 nM.

`CCN1CCCC(CCCN2CCn3c(c(C4CCCCC4)c4ccc(C(=O)O)cc43)-c3ccc(Cl)cc32)C1` (stereo not shown) [Example 1-411, 3-chloro-13-cyclohexyl-5-[3-(1-ethylpiperidin-3-yl)propyl]-6,7-dihydro-5H-benzo[5,6][1,4]diazepino[7,1-a]indole-10-carboxylic acid dihydrochloride]: the IC50 was < 100 nM.

In the case of `O=C(O)c1ccc2c(C3CCCCC3)c3n(c2c1)CCN(CCCC1CCCN(C2CCCC2)C1)c1cc(Cl)ccc1-3` (stereo not shown) [Example 1-412, 3-chloro-13-cyclohexyl-5-[3-(1-cyclopentylpiperidin-3-yl)propyl]-6,7-dihydro-5H-benzo[5,6][1,4]diazepino[7,1-a]indole-10-carboxylic acid dihydrochloride], the IC50 was < 100 nM.

For the compound `COCC[C@@H]1CCCN(CCN2CCn3c(c(C4CCCCC4)c4ccc(C(=O)O)cc43)-c3ccc(C)cc32)C1` [Example 1-413, 13-cyclohexyl-5-{2-[(S)-3-(2-methoxyethyl)piperidin-1-yl]ethyl}-3-methyl-6,7-dihydro-5H-benzo[5,6][1,4]diazepino[7,1-a]indole-10-carboxylic acid dihydrochloride], the IC50 was < 100 nM.
